Assay results reported in patent US20230148005A1, “MACROCYCLIC COMPOUNDS AND USES THEREOF” (THESEUS PHARMACEUTICALS, INC., priority 2020, published 2023).

Legend:
[1] = biological target: Ba/F3 EGFR-Del19/T790M/C797S (Homo sapiens, UniProt P00533, T790M/C797S, cells depend on it, form not given); test: Ba/F3 viability assay (CellTiter-Glo), DTC; type: cell-based; conditions: anti-proliferation, read-out: BaF3 DTC IC50
Summary of the method: (§1)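 Proliferation inhibition, viability-based; mutant EGFR lines plus parental control.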

[2] = biological target: EGFR^L858R/T790M/C^797S (Homo sapiens, UniProt P00533, C797S/L858R/T790M); test: in vitro kinase assay (HTRF KinEASE-TK kit), LTC; type: biochemical; conditions: kinase inhibition
Sequence of EGFR^L858R/T790M/C^797S (P00533 25-1210 T790M/C797S/L858R): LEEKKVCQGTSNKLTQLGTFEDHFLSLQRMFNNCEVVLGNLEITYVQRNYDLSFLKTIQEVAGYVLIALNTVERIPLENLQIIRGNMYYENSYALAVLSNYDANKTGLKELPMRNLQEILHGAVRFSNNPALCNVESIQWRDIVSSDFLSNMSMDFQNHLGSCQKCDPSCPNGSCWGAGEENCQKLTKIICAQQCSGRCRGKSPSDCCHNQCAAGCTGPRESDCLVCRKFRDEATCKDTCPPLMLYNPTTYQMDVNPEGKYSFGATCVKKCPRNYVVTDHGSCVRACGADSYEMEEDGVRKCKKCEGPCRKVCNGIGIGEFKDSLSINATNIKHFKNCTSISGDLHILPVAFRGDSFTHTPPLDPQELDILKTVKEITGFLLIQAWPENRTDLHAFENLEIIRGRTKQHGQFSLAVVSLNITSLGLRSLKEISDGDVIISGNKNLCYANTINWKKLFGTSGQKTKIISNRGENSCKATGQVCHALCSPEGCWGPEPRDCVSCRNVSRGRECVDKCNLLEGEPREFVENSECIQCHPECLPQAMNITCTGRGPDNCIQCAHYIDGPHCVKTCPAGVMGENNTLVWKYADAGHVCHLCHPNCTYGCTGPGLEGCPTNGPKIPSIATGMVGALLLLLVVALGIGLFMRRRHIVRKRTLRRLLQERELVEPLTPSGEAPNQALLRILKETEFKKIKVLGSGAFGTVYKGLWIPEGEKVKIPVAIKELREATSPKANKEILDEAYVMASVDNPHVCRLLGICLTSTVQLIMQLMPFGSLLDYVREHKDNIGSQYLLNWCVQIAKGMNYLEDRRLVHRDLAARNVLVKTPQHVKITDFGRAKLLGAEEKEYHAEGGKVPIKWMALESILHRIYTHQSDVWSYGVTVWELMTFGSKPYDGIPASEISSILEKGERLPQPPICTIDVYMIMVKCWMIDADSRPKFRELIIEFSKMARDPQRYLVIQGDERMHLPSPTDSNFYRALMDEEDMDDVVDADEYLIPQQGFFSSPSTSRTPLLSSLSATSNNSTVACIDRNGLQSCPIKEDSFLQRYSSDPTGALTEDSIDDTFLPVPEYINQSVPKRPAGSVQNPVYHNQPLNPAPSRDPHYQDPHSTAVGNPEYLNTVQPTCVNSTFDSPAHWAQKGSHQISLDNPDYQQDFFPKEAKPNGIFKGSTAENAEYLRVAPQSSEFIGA
Description: (§2) Assays using an in vitro kinase assay kit (HTRF KinEASE-TK kit) can be used to study the inhibitory activity of compounds described herein with respect to EGFR mutants such as EGFR^L858R, EGFR^L58R/T790M, and EGFR^L858R/T790M/C^797S.

[3] = test system: Ba/F3 Parental; test: Ba/F3 viability assay (CellTiter-Glo), parental; type: cell-based; conditions: Mus musculus, BaF3, anti-proliferation
Summary of the method: as §1

[4] = biological target: EGFR^L58R/T790M (Homo sapiens, UniProt P00533, L858R/T790M); test: in vitro kinase assay (HTRF KinEASE-TK kit), LT; type: biochemical; conditions: kinase inhibition
Sequence of EGFR^L58R/T790M (P00533 25-1210 T790M/L858R): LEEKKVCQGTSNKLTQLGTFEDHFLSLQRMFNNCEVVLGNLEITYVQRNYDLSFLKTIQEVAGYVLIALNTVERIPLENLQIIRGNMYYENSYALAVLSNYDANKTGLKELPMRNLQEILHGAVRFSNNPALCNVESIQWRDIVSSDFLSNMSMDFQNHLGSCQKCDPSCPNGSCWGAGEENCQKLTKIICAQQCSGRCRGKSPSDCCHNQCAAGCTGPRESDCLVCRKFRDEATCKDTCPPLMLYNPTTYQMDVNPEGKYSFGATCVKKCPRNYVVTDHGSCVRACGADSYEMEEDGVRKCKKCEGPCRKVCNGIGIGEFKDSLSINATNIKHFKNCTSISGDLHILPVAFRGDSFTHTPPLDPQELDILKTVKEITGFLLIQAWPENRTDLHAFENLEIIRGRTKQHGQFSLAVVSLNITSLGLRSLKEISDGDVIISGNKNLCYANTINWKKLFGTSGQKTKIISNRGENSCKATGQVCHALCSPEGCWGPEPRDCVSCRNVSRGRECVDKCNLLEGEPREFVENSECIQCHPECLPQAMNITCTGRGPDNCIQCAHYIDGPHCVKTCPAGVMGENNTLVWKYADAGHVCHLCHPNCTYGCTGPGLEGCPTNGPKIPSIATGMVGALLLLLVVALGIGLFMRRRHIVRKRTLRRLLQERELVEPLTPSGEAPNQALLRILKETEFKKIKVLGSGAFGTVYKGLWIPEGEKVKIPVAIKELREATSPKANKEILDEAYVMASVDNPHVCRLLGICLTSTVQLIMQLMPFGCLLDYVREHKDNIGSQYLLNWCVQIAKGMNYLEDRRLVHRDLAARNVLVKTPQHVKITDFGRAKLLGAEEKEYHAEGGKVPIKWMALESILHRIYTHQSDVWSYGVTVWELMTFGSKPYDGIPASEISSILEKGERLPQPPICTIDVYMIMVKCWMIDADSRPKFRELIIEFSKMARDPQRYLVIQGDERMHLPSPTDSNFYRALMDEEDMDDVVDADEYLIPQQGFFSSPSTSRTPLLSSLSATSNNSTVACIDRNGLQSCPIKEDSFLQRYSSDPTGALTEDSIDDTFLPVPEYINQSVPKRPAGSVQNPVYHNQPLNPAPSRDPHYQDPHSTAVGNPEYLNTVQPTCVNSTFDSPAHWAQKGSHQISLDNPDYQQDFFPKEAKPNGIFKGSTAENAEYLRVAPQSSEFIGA
Description: as §2

[5] = biological target: Ba/F3 EGFR-Del19/C797S (Homo sapiens, UniProt P00533, C797S, cells depend on it, form not given); test: Ba/F3 viability assay (CellTiter-Glo), DC; type: cell-based; conditions: anti-proliferation, read-out: BaF3 DC IC50
Sequence of Ba/F3 EGFR-Del19/C797S (P00533 with tags, fused parts or gaps DEL746-750/C797S, form open): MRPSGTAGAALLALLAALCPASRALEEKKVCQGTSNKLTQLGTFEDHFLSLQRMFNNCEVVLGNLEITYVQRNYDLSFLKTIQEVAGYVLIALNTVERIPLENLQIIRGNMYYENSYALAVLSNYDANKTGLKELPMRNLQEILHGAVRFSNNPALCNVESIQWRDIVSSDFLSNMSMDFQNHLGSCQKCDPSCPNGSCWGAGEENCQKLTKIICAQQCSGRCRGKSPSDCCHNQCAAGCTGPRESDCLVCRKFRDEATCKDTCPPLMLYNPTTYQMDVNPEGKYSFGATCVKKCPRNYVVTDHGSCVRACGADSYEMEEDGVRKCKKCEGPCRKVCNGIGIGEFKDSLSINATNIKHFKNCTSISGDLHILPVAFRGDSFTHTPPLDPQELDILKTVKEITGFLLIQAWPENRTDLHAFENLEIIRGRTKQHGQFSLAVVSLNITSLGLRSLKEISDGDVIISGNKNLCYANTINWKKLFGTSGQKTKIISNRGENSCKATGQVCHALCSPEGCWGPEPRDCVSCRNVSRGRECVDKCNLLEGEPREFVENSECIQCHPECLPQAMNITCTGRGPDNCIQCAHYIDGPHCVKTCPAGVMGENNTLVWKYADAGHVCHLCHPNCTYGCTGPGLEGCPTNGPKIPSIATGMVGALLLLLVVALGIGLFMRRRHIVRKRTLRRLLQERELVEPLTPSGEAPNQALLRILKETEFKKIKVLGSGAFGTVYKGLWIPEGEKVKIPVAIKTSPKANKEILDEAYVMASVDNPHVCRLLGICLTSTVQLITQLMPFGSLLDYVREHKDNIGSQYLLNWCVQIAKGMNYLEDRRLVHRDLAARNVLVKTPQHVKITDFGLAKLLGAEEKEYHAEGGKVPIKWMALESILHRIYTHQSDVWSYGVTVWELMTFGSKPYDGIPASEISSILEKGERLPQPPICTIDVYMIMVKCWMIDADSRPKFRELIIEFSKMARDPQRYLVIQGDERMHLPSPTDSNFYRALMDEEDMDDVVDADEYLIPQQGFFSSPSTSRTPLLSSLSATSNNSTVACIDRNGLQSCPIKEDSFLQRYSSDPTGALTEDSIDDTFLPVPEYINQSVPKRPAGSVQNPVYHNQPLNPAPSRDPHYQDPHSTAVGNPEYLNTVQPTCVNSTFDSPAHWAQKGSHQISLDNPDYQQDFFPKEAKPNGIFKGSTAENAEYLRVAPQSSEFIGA
Summary of the method: as §1

[6] = biological target: EGFR^L858R (Homo sapiens, UniProt P00533, L858R); test: in vitro kinase assay (HTRF KinEASE-TK kit), L; type: biochemical; conditions: kinase inhibition
Sequence of EGFR^L858R (P00533 25-1210 L858R): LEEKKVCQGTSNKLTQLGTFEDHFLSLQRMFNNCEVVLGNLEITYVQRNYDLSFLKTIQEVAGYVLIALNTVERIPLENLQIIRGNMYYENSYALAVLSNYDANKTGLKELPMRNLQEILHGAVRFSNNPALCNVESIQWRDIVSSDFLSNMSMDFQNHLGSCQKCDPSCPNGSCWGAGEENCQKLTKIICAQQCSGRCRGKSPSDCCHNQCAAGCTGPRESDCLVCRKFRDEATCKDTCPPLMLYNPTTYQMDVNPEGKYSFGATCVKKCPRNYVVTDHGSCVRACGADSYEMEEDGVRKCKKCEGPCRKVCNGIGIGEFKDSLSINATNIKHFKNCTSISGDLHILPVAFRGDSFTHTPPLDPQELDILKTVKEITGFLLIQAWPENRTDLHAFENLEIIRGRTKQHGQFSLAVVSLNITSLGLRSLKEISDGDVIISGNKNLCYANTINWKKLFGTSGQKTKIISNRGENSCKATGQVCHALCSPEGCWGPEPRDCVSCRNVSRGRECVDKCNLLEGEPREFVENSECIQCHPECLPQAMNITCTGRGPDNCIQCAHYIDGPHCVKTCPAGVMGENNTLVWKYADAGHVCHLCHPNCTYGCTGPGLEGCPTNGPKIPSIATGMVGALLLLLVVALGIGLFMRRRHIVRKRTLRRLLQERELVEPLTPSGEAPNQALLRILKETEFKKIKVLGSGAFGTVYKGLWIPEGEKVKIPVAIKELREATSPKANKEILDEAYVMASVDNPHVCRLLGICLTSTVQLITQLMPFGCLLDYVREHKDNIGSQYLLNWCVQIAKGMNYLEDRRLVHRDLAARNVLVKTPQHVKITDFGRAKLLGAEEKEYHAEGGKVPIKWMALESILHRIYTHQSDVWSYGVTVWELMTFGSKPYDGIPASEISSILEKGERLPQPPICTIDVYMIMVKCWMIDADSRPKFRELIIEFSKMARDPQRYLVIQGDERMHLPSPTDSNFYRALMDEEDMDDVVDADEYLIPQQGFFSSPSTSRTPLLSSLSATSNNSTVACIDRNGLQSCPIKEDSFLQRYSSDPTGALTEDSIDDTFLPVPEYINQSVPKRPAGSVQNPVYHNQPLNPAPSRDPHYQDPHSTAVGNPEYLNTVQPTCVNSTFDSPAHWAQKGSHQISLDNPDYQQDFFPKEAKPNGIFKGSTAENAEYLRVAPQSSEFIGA
Description: as §2

[7] = biological target: Ba/F3 EGFR-Del19/T790M (Homo sapiens, UniProt P00533, T790M, cells depend on it, form not given); test: Ba/F3 viability assay (CellTiter-Glo), DT; type: cell-based; conditions: anti-proliferation, read-out: BaF3 DT IC50
Summary of the method: as §1

| Structure (SMILES) | GI50 [1] [µM] | IC50 [2] [µM] | IC50 [3] [µM] | IC50 [4] [µM] | GI50 [5] [µM] | IC50 [6] [µM] | GI50 [7] [µM] |
| --- | --- | --- | --- | --- | --- | --- | --- |
| CCn1cc(-c2nn3c4cc(ncc24)Nc2ccnc(n2)-c2cnn(C)c2OCC[C@@H]3C)cc1CN1CCOCC1 [(148)] | < 0.01 | < 0.01 | 0.1 to 1 | < 0.01 | < 0.01 | < 0.01 | < 0.01 |
| CCN(CC)CCOc1cc(-c2nn3c4cc(ncc24)Nc2ccnc(n2)-c2cnn(C)c2OCC[C@@H]3C)ccc1F [(149)] | < 0.01 | < 0.01 | 0.1 to 1 | < 0.01 | 0.01 to 0.1 | < 0.01 | < 0.01 |
| Cc1ccc(-c2nn3c4cc(ncc24)Nc2ccnc(n2)-c2cnn(C)c2OCC[C@@H]3C)n1C [(150)] | 0.01 to 0.1 | < 0.01 | ≥ 1 | < 0.01 | 0.01 to 0.1 | 0.01 to 0.1 | 0.01 to 0.1 |
| CC(C)n1cc(-c2nn3c4cc(ncc24)Nc2ccnc(n2)-c2cnn(C)c2OCC[C@@H]3C)cc1CN1CCOCC1 [(151)] | < 0.01 | < 0.01 | 0.1 to 1 | < 0.01 | 0.01 to 0.1 | < 0.01 | < 0.01 |
| CCCn1cc(-c2nn3c4cc(ncc24)Nc2ccnc(n2)-c2cnn(C)c2OCC[C@@H]3C)cc1CN1CCOCC1 [(152)] | < 0.01 | < 0.01 | 0.1 to 1 | < 0.01 | < 0.01 | < 0.01 | < 0.01 |
| CCN(CC)CCOc1cc(-c2nn3c4cc(ncc24)Nc2ccnc(n2)-c2cnn(C)c2OCC[C@@H]3C)ccc1Cl [(153)] | 0.01 to 0.1 | < 0.01 | 0.1 to 1 | < 0.01 | 0.01 to 0.1 | < 0.01 | 0.01 to 0.1 |
| C[C@H]1CCOc2c(cnn2C)-c2nccc(n2)Nc2cc3c(cn2)c(-c2ccc(F)c(OCCN4CCOCC4)c2)nn31 [(154)] | < 0.01 | < 0.01 | 0.1 to 1 | < 0.01 | 0.01 to 0.1 | < 0.01 | 0.01 to 0.1 |
| C[C@H]1CCOc2c(cnn2C)-c2nccc(n2)Nc2cc3c(cn2)c(-c2nn(C)cc2CCN(C)C)nn31 [(155)] | 0.01 to 0.1 | < 0.01 | ≥ 1 | < 0.01 | 0.01 to 0.1 | < 0.01 | 0.01 to 0.1 |
| CCn1cc(-c2nn3c4cc(ncc24)Nc2ccnc(n2)-c2cnn(C)c2OCC[C@@H]3C)cc1CN(C)C [(156)] | < 0.01 | < 0.01 | 0.1 to 1 | < 0.01 | < 0.01 | < 0.01 | < 0.01 |
| C[C@H]1CCOc2c(cnn2C)-c2nccc(n2)Nc2cc3c(cn2)c(-c2ncc(CN(C)C)s2)nn31 [(157)] | < 0.01 | < 0.01 | 0.1 to 1 | < 0.01 | 0.01 to 0.1 | < 0.01 | 0.01 to 0.1 |
| CCN(CC)CCOc1cccc(-c2nn3c4cc(ncc24)Nc2ccnc(n2)-c2cnn(C)c2OCC[C@@H]3C)c1C [(158)] | 0.1 to 1 | < 0.01 | 0.1 to 1 | < 0.01 | 0.1 to 1 | 0.1 to 1 | 0.1 to 1 |
| CCN(CC)CCOc1ccc(C)c(-c2nn3c4cc(ncc24)Nc2ccnc(n2)-c2cnn(C)c2OCC[C@@H]3C)c1 [(159)] | 0.1 to 1 | 0.01 to 0.1 | 0.1 to 1 | 0.01 to 0.1 | 0.1 to 1 | 0.1 to 1 | 0.1 to 1 |
| C[C@H]1CCOc2c(cnn2C)-c2nccc(n2)Nc2cc3c(cn2)c(-c2cccc(N4CCC(N5CCOCC5)CC4)c2)nn31 [(160)] | < 0.01 | < 0.01 | 0.1 to 1 | < 0.01 | 0.01 to 0.1 | < 0.01 | < 0.01 |
| CCN1CCc2c(cc(-c3nn4c5cc(ncc35)Nc3ccnc(n3)-c3cnn(C)c3OCC[C@@H]4C)n2C)C1C (stereo partly shown) [(161)] | < 0.01 | < 0.01 | 0.1 to 1 | < 0.01 | 0.01 to 0.1 | < 0.01 | < 0.01 |
| C[C@H]1CCOc2c(cnn2C)-c2nccc(n2)Nc2cc3c(cn2)c(-c2ccc(CN(C)C)o2)nn31 [(162)] | < 0.01 | < 0.01 | 0.1 to 1 | < 0.01 | < 0.01 | < 0.01 | < 0.01 |
| C[C@H]1CCOc2c(cnn2C)-c2nccc(n2)Nc2cc3c(cn2)c(-c2cccc(CCN4CCOCC4)c2)nn31 [(163)] | < 0.01 | < 0.01 | 0.1 to 1 | < 0.01 | 0.01 to 0.1 | < 0.01 | 0.01 to 0.1 |

| Structure (SMILES) | GI50 [1] [µM] | IC50 [2] [µM] | IC50 [3] [µM] | IC50 [4] [µM] | GI50 [5] [µM] | IC50 [6] [µM] | GI50 [7] [µM] |
| --- | --- | --- | --- | --- | --- | --- | --- |
| C[C@H]1CCOc2c(cnn2C)-c2nccc(n2)Nc2cc3c(cn2)c(-c2ccc(CN4CCOCC4)o2)nn31 [(164)] | < 0.01 | < 0.01 | 0.1 to 1 | < 0.01 | 0.01 to 0.1 | < 0.01 | < 0.01 |
| C[C@H]1CCOc2c(cnn2C)-c2nccc(n2)Nc2cc3c(cn2)c(-c2cccc(CN(C)C)c2)nn31 [(165)] | < 0.01 | < 0.01 | 0.1 to 1 | < 0.01 | < 0.01 | < 0.01 | < 0.01 |
| C[C@H]1CCOc2c(cnn2C)-c2nccc(n2)Nc2cc3c(cn2)c(-c2cccc(N4CC[C@@H](N(C)C)C4)c2)nn31 [(166)] | < 0.01 | < 0.01 | 0.1 to 1 | < 0.01 | < 0.01 | < 0.01 | < 0.01 |
| C[C@H]1CCOc2c(cnn2C)-c2nccc(n2)Nc2cc3c(cn2)c(-c2cccc(N4CC[C@H](N(C)C)C4)c2)nn31 [(167)] | < 0.01 | < 0.01 | 0.1 to 1 | < 0.01 | < 0.01 | < 0.01 | < 0.01 |
| Cc1cc(-c2nn3c4cc(ncc24)Nc2ccnc(n2)-c2cnn(C)c2OCC[C@@H]3C)oc1CN(C)C [(168)] | < 0.01 | < 0.01 | 0.1 to 1 | < 0.01 | < 0.01 | < 0.01 | < 0.01 |
| C[C@H]1CCOc2c(cnn2C)-c2nccc(n2)Nc2cc3c(cn2)c(N2CC[C@H](CN(C)CCF)C2)nn31 [(169)] | < 0.01 | < 0.01 | 0.1 to 1 | < 0.01 | < 0.01 | < 0.01 | < 0.01 |
| C[C@H]1CCOc2c(cnn2C)-c2nccc(n2)Nc2cc3c(cn2)c(N2CC[C@H](N(C)CCF)C2)nn31 [(170)] | < 0.01 | < 0.01 | 0.1 to 1 | < 0.01 | 0.01 to 0.1 | < 0.01 | 0.01 to 0.1 |
| Cc1nc(-c2nn3c4cc(ncc24)Nc2ccnc(n2)-c2cnn(C)c2OCC[C@@H]3C)sc1CN(C)C [(171)] | 0.01 to 0.1 | < 0.01 | 0.1 to 1 | < 0.01 | 0.01 to 0.1 | < 0.01 | 0.01 to 0.1 |
| C[C@H]1CCOc2c(cnn2C)-c2nccc(n2)Nc2cc3c(cn2)c(-c2ccc(CN4CCN(C)CC4)cc2)nn31 [(172)] | < 0.01 | < 0.01 | 0.01 to 0.1 | < 0.01 | < 0.01 | < 0.01 | < 0.01 |
| C[C@H]1CCOc2c(cnn2C)-c2nccc(n2)Nc2cc3c(cn2)c(-c2cccc(N4CCC(N5CCN(C)CC5)CC4)c2)nn31 [(173)] | < 0.01 | < 0.01 | 0.1 to 1 | < 0.01 | < 0.01 | < 0.01 | < 0.01 |
| Cc1nc(-c2nn3c4cc(ncc24)Nc2ccnc(n2)-c2cnn(C)c2OCC[C@@H]3C)sc1CN1CCOCC1 [(174)] | < 0.01 | < 0.01 | 0.1 to 1 | < 0.01 | < 0.01 | < 0.01 | < 0.01 |
| C[C@H]1CCOc2c(cnn2C)-c2nccc(n2)Nc2cc3c(cn2)c(N2CC[C@@H](CN(C)CCF)C2)nn31 [(175)] | < 0.01 | < 0.01 | 0.01 to 0.1 | < 0.01 | < 0.01 | < 0.01 | < 0.01 |
| C[C@H]1CCOc2c(cnn2C)-c2nccc(n2)Nc2cc3c(cn2)c(-c2ccc(CN(C)C)cc2)nn31 [(176)] | < 0.01 | < 0.01 | 0.1 to 1 | < 0.01 | 0.01 to 0.1 | < 0.01 | < 0.01 |
| C[C@H]1CCOc2c(cnn2C)-c2nccc(n2)Nc2cc3c(cn2)c(-c2cccc(CN4CCOCC4)c2)nn31 [(177)] | < 0.01 | < 0.01 | 0.1 to 1 | < 0.01 | 0.01 to 0.1 | 0.01 to 0.1 | 0.01 to 0.1 |
| C[C@H]1CCOc2c(cnn2C)-c2nccc(n2)Nc2cc3c(cn2)c(N2CC[C@H](N(C)C)C2)nn31 [(178)] | < 0.01 | < 0.01 | 0.1 to 1 | < 0.01 | 0.01 to 0.1 | 0.01 to 0.1 | 0.01 to 0.1 |
